Source: patent publication US20210330578A1, “TOPICAL COSMETIC COMPOSITIONS” (Mary Kay Inc., priority 2020, published 2021)

System: filaggrin
Assay: Filaggrin protein expression in keratinocytes (PROTEINSIMPLE SIMON western blotting bioassay)
Format: cell-based, human
Settings: 1% tested, 24 to 36 hours
Protocol: Changes in the production of filaggrin in keratinocytes due to each of the active ingredients, any one of the combination of ingredients, or compositions having said combinations disclosed in the specification can be measured. Filaggrin is the precursor to Natural Moisturizing Factor (NMF) in the skin. Increased NMF increases the moisture content of the skin.
Filaggrin production in treated and non-treated keratinocytes was determined using the PROTEINSIMPLE® SIMON™ western blotting bioassay that employs an antibody specific for filaggrin to quantitatively detect filaggrin concentration in keratinocyte cell lysates. The treated group of keratinocytes was treated with 1% of calcium or an extract of Laminaria saccharina, marine plankton, Opuntia ficus-indica, Imperata cylindrical, or Verbena officinalis (1%).
For each sample, normal human epidermal keratinocytes (NHEK) were grown in EPI-200—Mattek EPILIFE™ growth media with calcium from Life Technologies (M-EP-500-CA). […] The protein concentrations of the samples were determined and used to normalize the samples. The lysates were stored at −80° C. until used in the quantification assay. […] The chemiluminescent development was stopped at a specific time and the intensity of the chemiluminescent signal was measured (reported as Area Under Curve, AUC in Table 3 below) and compared to controls.

## [Ca+2] [Calcium]
NHEK, compared to controls
  % Ctrl (increase in filaggrin protein expression): 15.60%
Normal human epidermal keratinocytes (NHEK), control AUC 70848
  AUC (intensity of the chemiluminescent signal, filaggrin): 81899
